Results: publication PMC2231820 (The Journal of General Physiology, 2000)
Substitutions are numbered along the chain they refer to. Like-named read-outs stand apart in the source and are kept apart here.

What was measured:
[1] = molecular target: T1, Rolf G204D CNG channel (Rattus norvegicus, UniProt Q00195, G204D); type: cell-based
T1 sequence (Q00195 1-664 G204D): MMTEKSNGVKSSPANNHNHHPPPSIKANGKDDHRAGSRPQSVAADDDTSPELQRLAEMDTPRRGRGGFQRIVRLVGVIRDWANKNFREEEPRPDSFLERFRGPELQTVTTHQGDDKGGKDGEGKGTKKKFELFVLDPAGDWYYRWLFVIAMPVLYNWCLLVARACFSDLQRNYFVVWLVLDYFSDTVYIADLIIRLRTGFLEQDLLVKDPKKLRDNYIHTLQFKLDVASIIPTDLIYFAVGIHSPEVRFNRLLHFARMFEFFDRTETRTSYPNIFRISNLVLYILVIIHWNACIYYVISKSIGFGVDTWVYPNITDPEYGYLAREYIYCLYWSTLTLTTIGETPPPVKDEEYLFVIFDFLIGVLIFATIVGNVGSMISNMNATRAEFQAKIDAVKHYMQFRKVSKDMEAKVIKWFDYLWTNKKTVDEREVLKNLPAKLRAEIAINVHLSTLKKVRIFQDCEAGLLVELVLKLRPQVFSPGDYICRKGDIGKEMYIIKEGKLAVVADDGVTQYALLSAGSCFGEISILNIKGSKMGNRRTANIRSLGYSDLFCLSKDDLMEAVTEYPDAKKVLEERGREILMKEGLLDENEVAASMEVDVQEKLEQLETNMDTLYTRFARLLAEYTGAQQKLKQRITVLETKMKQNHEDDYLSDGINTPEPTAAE

[2] = molecular target: T2, bovine rod (Brod) CNG channel, α homomultimer (Bos taurus, UniProt Q00194); type: cell-based; conditions: for Hill coefficient n of cGMP activation: six patches
T2 sequence (Q00194 1-690): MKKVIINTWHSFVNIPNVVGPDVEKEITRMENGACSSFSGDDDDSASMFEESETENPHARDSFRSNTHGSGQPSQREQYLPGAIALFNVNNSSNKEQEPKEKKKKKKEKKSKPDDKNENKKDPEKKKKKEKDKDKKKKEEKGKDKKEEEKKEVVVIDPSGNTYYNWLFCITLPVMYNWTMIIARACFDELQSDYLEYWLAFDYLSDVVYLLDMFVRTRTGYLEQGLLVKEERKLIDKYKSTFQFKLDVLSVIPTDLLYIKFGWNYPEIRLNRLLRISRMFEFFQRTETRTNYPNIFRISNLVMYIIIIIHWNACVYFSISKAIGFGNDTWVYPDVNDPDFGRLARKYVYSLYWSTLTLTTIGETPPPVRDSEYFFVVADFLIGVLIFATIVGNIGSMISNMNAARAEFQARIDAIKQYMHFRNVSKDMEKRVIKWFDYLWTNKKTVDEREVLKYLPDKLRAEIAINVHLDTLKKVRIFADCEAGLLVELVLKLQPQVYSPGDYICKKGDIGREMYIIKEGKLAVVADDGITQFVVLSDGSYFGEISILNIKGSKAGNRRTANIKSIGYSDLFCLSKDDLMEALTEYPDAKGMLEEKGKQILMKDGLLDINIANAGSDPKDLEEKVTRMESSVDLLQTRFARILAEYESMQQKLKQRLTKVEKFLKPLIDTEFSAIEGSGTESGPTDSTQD

[3] = molecular target: T3, Rolf G204E CNG channel (Rattus norvegicus, UniProt Q00195, G204E); type: cell-based; conditions: for Hill coefficient n of cGMP activation: 2 patches
T3 sequence (Q00195 1-664 G204E): T1 sequence (Q00195 1-664 G204D) with D204E

[4] = molecular target: T4, rat olfactory (Rolf) CNG channel, α homomultimer (Rattus norvegicus, UniProt Q00195); conditions: saturating 100 μM cGMP, ref Crary et al. 2000; cited from earlier work
T4 sequence (Q00195 1-664): T1 sequence (Q00195 1-664 G204D) with D204G

[5] = molecular target: T2, bovine rod (Brod) CNG channel, α homomultimer; conditions: saturating 2 mM cGMP, ref Crary et al. 2000; cited from earlier work
[6] = read-out: Percent inhibition by tetracaine

Work on CCCCNc1ccc(C(=O)OCCN(C)C)cc1 [Tetracaine, tetracaine] yielded an IC50 [1] of 10.8 µM, an inhibition at 40 µM [2, 6] of 94.1% and an inhibition at 40 µM [3, 6] of 76.4%.
With Nc1nc2c(ncn2[C@@H]2O[C@@H]3COP(=O)(O)O[C@H]3[C@H]2O)c(=O)[nH]1 [cGMP] the “I/Imax of cGMP-activated current” value ([2]; Brod, 10 μM cGMP, +100 mV) was 0.20, the “Hill coefficient n of cGMP activation” value ([2]; Brod, +100 mV) was 2.0 and the “Hill coefficient n of cGMP activation” value ([2]; Brod, −100 mV) was 2.0. For the same molecule, the “Hill coefficient n of cGMP activation” value ([3]; Rolf G204E, +100 mV) was 1.7 and the “Hill coefficient n of cGMP activation” value ([3]; Rolf G204E, −100 mV) was 1.7.
For diacylglycerol [DAG], the “DAG maximal percent inhibition (INmax)” value [4] is given as 31%, the “decrease of maximal current by DAG” value ([2]; Brod, 1.5 μM DAG, saturating 2 mM cGMP) is given as over 80% and the “DAG concentration that fully suppresses cGMP-activated currents” value ([2]; Brod, saturating cGMP) is given as about 3 µM. For the same molecule, the “DAG maximal percent inhibition (INmax)” value [5] was 100%, the “Hill coefficient n of DAG inhibition” value [5] was 1.7 and the “DAG maximal percent inhibition (INmax)” value ([3]; Rolf G204E, saturating 100 μM cGMP) was 100%. The “DAG concentration that fully suppresses cGMP-activated currents” value ([3]; Rolf G204E, saturating cGMP) was about 3 µM.
